Data reported in patent US20040204577A1, “Novel peptide-forming enzyme gene” (Ajinomoto Co., Inc., priority 2003, published 2004).
Marks after values point to notes of the source that are not given here. Where a SMILES comes first, the peptide text is derived from it. Where no end group is shown, it is not given here. [ ]: non-standard residue; d: D form. The star is where a group is joined. Tle = CC(C)(C)[C@H](N)C(=O)O; NMeA = CN[C@@H](C)C(=O)O; Boc = CC(C)(C)OC(=O)*; Aib = CC(C)(N)C(=O)O; OtBu = CC(C)(C)O*; tBu = CC(C)(C)*

The compounds below were run on peptide-forming enzyme (Mono S fraction enzyme) (assay: Enzyme substrate specificity (1)-(10), (13), (14): peptide production). Details: L or D amino acid methyl ester hydrochloride 100 mM, L or D amino acid 150 mM, pH 9.0, 25° C., 3 hours.
Format: biochemical, Empedobacter brevis
Set-up: key to Produced peptide (oligopeptide): +: those for which production was confirmed but which were unable to be quantified due to the absence of a standard; a trace amount; key to Formed peptide: +: those peptides for which production was confirmed but which were unable to be quantified due to the absence of a standard; a trace amount
Protocol: Ester specificity was examined in the case of using L-amino acid ester for the carboxy component. 2 μl of the same enzyme fraction as used in Example 5 was added to 100 μl of 100 mM borate buffer (pH 9.0) containing the carboxy components indicated in Table 4 at 100 mM, 200 mM L-glutamine and 10 mM EDTA, and allowed to react at 25° C. for 2 hours. HCl represents hydrochloride in Table 4.
Peptide production was examined in the case of using L-alanine methyl ester for the carboxy component and using various L-amino acids for the amine component.
Peptide production was examined in the case of using various types of L-amino acid methyl esters for the carboxy component and using L-glutamine for the amine component. 2 μl of the same enzyme fraction as used in Example 5 was added to 100 μl of 100 mM borate buffer (pH 9.0) containing the L-amino acid methyl ester hydrochloride salts (AA-OMe.HCl) shown in Table 6 at 100 mM, 150 mM L-glutamine and 10 mM EDTA, and allowed to react at 25° C. for 3 hours. […] Furthermore, Tween-80 was added to the reaction system to a final concentration of 0.1% in the case of using L-Trp-OMe and L-Tyr-OMe.
Peptide production was examined in the case of using various L-amino acid methyl esters for the carboxy component and various L-amino acids for the amine component. 2 μl of the same enzyme fraction as used in Example 5 was added to 100 μl of 100 mM borate buffer (pH 9.0) containing the L-amino acid methyl ester hydrochloride salts (AA-OMe.HCl) shown in Table 7 at 100 mM, the L-amino acids shown in Table 7 at 150 mM and 10 mM EDTA, and allowed to react at 25° C. for 3 hours. The “tr” indicates a trace amount. Furthermore, Tween-80 was added to the reaction system to a final concentration of 0.1% in the case of using L-Trp-OMe.
Peptide production was examined in the case of using the L or D forms of various amino acid methyl esters for the carboxy component, and the L or D forms of various amino acids for the amine component. 2 μl of the same enzyme fraction as used in Example 5 was added to 100 μl of 100 mM borate buffer (pH 9.0) containing the various amino acid methyl ester hydrochloride salts (AA-OMe HCl) shown in Table 8 at 100 mM, the various amino acids shown in Table 8 at 150 mM and 10 mM EDTA, and allowed to react at 25° C. for 3 hours. The “tr” indicates a trace amount.
Peptide production was examined using various L-amino acid amides for the carboxy component, and various L-amino acids for the amine component. 2 μl of the same enzyme fraction as that used in Example 5 was added to 100 μl of 100 mM borate buffer (pH 9.0) containing the L-amino acid amide hydrochloride salt (M-NH2.HCl) shown in Table 9 at 100 mM, the L-amino acids shown in Table 9 at 150 mM and 10 mM EDTA, and allowed to react at 25° C. for 3 hours.
Peptide production was examined in the case of using various L-alanine methyl esters for the carboxy component and C-protected L-amino acids for the amine component. 2 μl of the same enzyme fraction as used in Example 5 was added to 100 μl of 100 mM borate buffer (pH 9.0) containing the L-alanine methyl ester hydrochloride hydrochloride salt (Ala-OMe.HCl) shown in Table 10 at 100 mM, the L-amino acid amide hydrochloride salts shown in Table 10 at 150 mM and 10 mM EDTA, and allowed to react at 25° C. for 3 hours.
Peptide production was examined in the case of using various amino acid methyl esters for the carboxy component and methylamine for the amine component. 2 μl of the same enzyme fraction as used in Example 5 was added to 100 μl of 100 mM borate buffer (pH 9.0) containing the amino acid methyl ester hydrochloride salt (M-OMe.HCl) shown in Table 11 at 100 mM, the methylamine shown in Table 11 at 150 mM and 10 mM EDTA, and allowed to react at 25° C. for 3 hours.
Peptide production was examined in the case of using […] for the carboxy component or β-amino acid for the amine component.
With C[C@@H](N)C(=O)N[C@H](CCC(N)=O)C(=O)O [D-Ala-D-Gln] (H-[dA]-[dQ]-OH) the Formed peptide was “tr”. For CSCC[C@@H](N)C(=O)N[C@@H](CO)C(=O)O [D-Met-L-Ser] (H-[dM]-Ser-OH), the Formed peptide was 5.1 mM. Compound N[C@H](CO)C(=O)N[C@H](CO)C(=O)O [D-Ser-D-Ser] (H-[dS]-[dS]-OH) has a Formed peptide of 2.5 mM. With CC(C)[C@H](N)C(=O)N[C@H](CO)C(=O)O [L-Val-D-Ser] (H-Val-[dS]-OH) the Formed peptide was 1.4 mM. For N[C@H](CO)C(=O)N[C@@H](CO)C(=O)O [D-Ser-L-Ser] (H-[dS]-Ser-OH), the Formed peptide was 3.3 mM. For CSCC[C@H](N)C(=O)N[C@H](CO)C(=O)O [L-Met-D-Ser] (H-Met-[dS]-OH), the Formed peptide was 1.9 mM. C[C@H](N)C(=O)N[C@H](CCC(N)=O)C(=O)O [L-Ala-D-Gln] (H-Ala-[dQ]-OH) gave a Formed peptide of 0.3 mM. Compound CC(C)[C@@H](N)C(=O)N[C@H](CO)C(=O)O [D-Val-D-Ser] (H-[dV]-[dS]-OH) has a Formed peptide of 0.5 mM. CSCC[C@@H](N)C(=O)N[C@H](CO)C(=O)O [D-Met-D-Ser] (H-[dM]-[dS]-OH) was tested, and the Formed peptide was 2.7 mM. Compound C[C@H](O)[C@@H](N)C(=O)N[C@@H](CO)C(=O)O [D-Thr-L-Ser] (H-[dT]-Ser-OH) has a Formed peptide of 1.0 mM. C[C@@H](N)C(=O)N[C@@H](CCC(N)=O)C(=O)O [D-Ala-L-Gln] (H-[dA]-Gln-OH) was tested, and the Formed peptide was 69.3 mM.

Same assay, conditions: L-amino acid amide hydrochloride as carboxy component 100 mM, L-amino acid 150 mM, pH 9.0, 25° C., 3 hours
In the case of N[C@@H](Cc1ccccc1)C(=O)N[C@@H](CO)C(=O)O [L-Phe-L-Ser] (H-Phe-Ser-OH), the Formed peptide is reported as 0.6 mM.

Same assay, conditions: L-amino acid ester 100 mM, peptide (amine component) 150 mM, pH 9.0, 25° C., 3 hours
With Gly-Gly-L-Gln the Produced peptide was 7.2 mM.

Same assay, conditions: L-amino acid methyl ester hydrochloride 100 mM, 150 mM L-glutamine, pH 9.0, 25° C., 3 hours
In the case of CC(C)C[C@H](N)C(=O)N[C@@H](CCC(N)=O)C(=O)O [L-Leu-L-Gln] (H-Leu-Gln-OH), the Formed peptide is reported as “+”. In the case of NC(=O)CC[C@H](NC(=O)[C@@H](N)CS)C(=O)O [L-CySH-L-Gln] (H-Cys-Gln-OH), the Formed peptide is reported as “+”. NC(=O)CC[C@H](NC(=O)CC[C@H](N)C(=O)O)C(=O)O [γ-L-Glu-L-Gln] was tested, and the Formed peptide was “+”. In the case of NC(=O)CC[C@H](NC(=O)C[C@H](N)C(=O)O)C(=O)O [β-L-Asp-L-Gln], the Formed peptide is reported as “tr”. With NC(=O)CC[C@H](NC(=O)[C@@H](N)CC(N)=O)C(=O)O [L-Asn-L-Gln] (H-Asn-Gln-OH) the Formed peptide was “+”. NC(=O)CC[C@H](NC(=O)[C@@H](N)CCC(=O)O)C(=O)O [α-L-Glu-L-Gln] (H-Glu-Gln-OH) was tested, and the Formed peptide was “+”. In the case of NCCCC[C@H](N)C(=O)N[C@@H](CCC(N)=O)C(=O)O [L-Lys-L-Gln] (H-Lys-Gln-OH), the Formed peptide is reported as “+”. With NC(=O)CCC(NC(=O)C(N)Cc1c[nH]c2ccccc12)C(=O)O [L-Trp-L-Gln] (H-Trp-Gln-OH; configuration not given here) the Formed peptide was “+”.

Same assay, conditions: L-amino acid methyl ester hydrochloride 100 mM, L-amino acid 150 mM, pH 9.0, 25° C., 3 hours
Work on C[C@@H](O)[C@H](N)C(=O)N[C@@H](CO)C(=O)O [L-Thr-L-Ser] (H-Thr-Ser-OH) yielded a Formed peptide of 58.2 mM. Work on NC(=O)C[C@H](N)C(=O)N[C@@H](CCC(=O)O)C(=O)O [L-Asn-L-] (H-Asn-Glu-OH) yielded a Formed peptide of 10.2 mM. With CSCC[C@H](NC(=O)[C@@H](N)Cc1cnc[nH]1)C(=O)O [L-His-L-Met] (H-His-Met-OH) the Formed peptide was 6.5 mM. Compound CSCC[C@H](NC(=O)[C@@H](N)CC(C)C)C(=O)O [L-Leu-L-] (H-Leu-Met-OH) has a Formed peptide of 12.2 mM. CSCC[C@H](NC(=O)[C@@H](N)CCCCN)C(=O)O [L-Lys-L-Met] gave a Formed peptide of 6.8 mM. With NCC(=O)N[C@@H](CS)C(=O)O [Gly-L-CySH] (H-Gly-Cys-OH) the Formed peptide was 45.6 mM.

Same assay, conditions: amount of enzyme 0.1 unit, pH 9.0, 25° C., 3 hours
With L-Ala-Gly-L-Phe the “Produced peptide (oligopeptide)” value was “+”. In the case of [dA]-Gly-Phe, the “Produced peptide (oligopeptide)” value is reported as “Tr”.

Same assay, conditions: amount of enzyme 0.2 unit, pH 9.0, 25° C., 3 hours
In the case of L-Ala-L-Phe-L-Met, the “Produced peptide (oligopeptide)” value is reported as “+”. In the case of L-Ala-Gly-Gly-L-Phe-L-Met, the “Produced peptide (oligopeptide)” value is reported as “+”.

Same assay, conditions: amount of enzyme 1.0 unit, pH 9.0, 25° C., 3 hours
L-Tyr-Gly-Gly-L-Phe-L-Met was tested, and the “Produced peptide (oligopeptide)” value was 2.7 mM.

Same assay, conditions: carboxy component 10 mM, amine component 15 mM (low solubility), pH 9.0, 25° C., 3 hours
For L-Ala-L-Ala-L-Ala-L-Ala-L-Ala-L-Ala, the Produced peptide was 1.4* mM.

Same assay, conditions: carboxy component 40 mM, amine component 40 mM, 0.1 unit enzyme, 25° C., reaction time 3 hr
Work on C[C@H](N)C(=O)N[C@@H](Cc1ccc([N+](=O)[O-])cc1)C(=O)O [H-Ala-p-NO2-Phe-OH] yielded a Produced peptide of 27.5 mM. For NC(=O)CC[C@H](NC(=O)[C@@H](N)Cc1ccc([N+](=O)[O-])cc1)C(=O)O [H-p-NO2-Phe-H-Gln-OH], the Produced peptide was 1.1 mM.

Same assay, conditions: carboxy component 50 mM, amine component 50 mM, 0.1 unit enzyme, 25° C., reaction time 3 hr
Work on C[C@H](N)C(=O)N[C@@H](Cc1ccc(F)cc1)C(=O)O [H-Ala-p-F-Phe-OH] yielded a Produced peptide of 21.9 mM.

Same assay, conditions: carboxy component 100 mM, 200 mM L-glutamine, pH 9.0, 25° C., 2 hours
CCOC(=O)[C@H](C)N.Cl [L-Alanine ethyl ester.HCl] showed a L-Ala-L-Gln formed of 91.5 mM. For CC(C)OC(=O)[C@H](C)N.Cl [L-Alanine isopropyl ester.HCl], the L-Ala-L-Gln formed was 78.9 mM. With COC(=O)[C@H](C)N.Cl [L-Alanine methyl ester.HCl, L-alanine methyl ester hydrochloride] the L-Ala-L-Gln formed was 84.3 mM. For C[C@H](N)C(=O)OC(C)(C)C.Cl [L-Alanine-t-butyl ester.HCl], the L-Ala-L-Gln formed was 7.5 mM.

Same assay, conditions: carboxy component 100 mM, amine component 150 mM, 0.1 unit enzyme, 25° C., reaction time 2 hr
Work on C[C@H](N)C(=O)N[C@@H](COC(C)(C)C)C(=O)O [H-Ala-Ser(tBu)-OH] (H-Ala-Ser(tBu)-OH) yielded a Produced peptide of 48.8 mM. With C[C@H](N)C(=O)N[C@@H](CCCCNC(=O)OC(C)(C)C)C(=O)O [H-Ala-Lys(Boc)-OH] (H-Ala-Lys(Boc)-OH) the Produced peptide was 51.0 mM. In the case of CC(C)(C)OC(=O)C[C@H](N)C(=O)N[C@@H](CCC(N)=O)C(=O)O [H-Asp(OtBu)-Gln-OH] (H-Asp(OtBu)-Gln-OH), the Produced peptide is reported as 0.9 mM.

Same assay, conditions: carboxy component 100 mM, amine component 150 mM, 0.1 unit enzyme, 25° C., reaction time 3 hr
With C[C@H](N)C(=O)N[C@H](C(=O)O)C(C)(C)C [H-Ala-t-Leu-OH] (H-Ala-[Tle]-OH) the Produced peptide was 0.4 mM. Work on CC(C)(N)C(=O)N[C@@H](Cc1ccccc1)C(=O)O [H-Aib-Phe-OH] (H-[Aib]-Phe-OH) yielded a Produced peptide of 17.2 mM. Compound CC(C)(N)C(=O)N[C@@H](CCC(N)=O)C(=O)O [H-Aib-H-Gln-OH] (H-[Aib]-Gln-OH) has a Produced peptide of 18.8 mM. CN[C@@H](C)C(=O)N[C@@H](CCC(N)=O)C(=O)O [H-N-Me-Ala-H-Gln-OH] (H-[NMeA]-Gln-OH) gave a Produced peptide of 0.5 mM.

Same assay, conditions: β-amino acid ester or β-amino acid; carboxy component 100 mM, amine component 150 mM, pH 9.0, 25° C., 3 hours
Work on C[C@@H](O)[C@H](N)C(=O)NC(CC(=O)O)c1ccccc1 (stereo partly drawn) [Thr-β-Phe] yielded a Formed peptide of 1.4 mM. Compound NCC(=O)NCCC(=O)O [Gly-β-Ala] has a Formed peptide of 2.2 mM. With NCCC(=O)N[C@@H](CCC(N)=O)C(=O)O [β-Ala-L-Gln] the Formed peptide was 0.6 mM. For CC(N)C(=O)NC(CC(=O)O)c1ccccc1 (stereo not drawn) [Ala-β-Phe], the Formed peptide was 1.4 mM.
